Assay results taken from EP0797567B1, “NOVEL AMINO ACID DERIVATIVES WITH IMPROVED MULTI-DRUG RESISTANCE ACTIVITY” (Vertex Pharmaceuticals Incorporated, priority 1994, dated 1996).

Key:
[1] = tested on: HL60/ADR cells; test: Inhibition of MRP-mediated MDR: doxorubicin with or without compound, XTT viability; type: cell-based; conditions: Homo sapiens, 72 h, doxorubicin alone, no MDR inhibitor, control run of the compound in the same table row, 3 days, read-out: IC50 Dox alone
Experimental: We plated HL60/ADR cells in 96 well microtiter plates (4 x 10^4 cells/well). […] After culturing the cells for 3 days, their viability was quantitated using the XTT dye method to assess mitochondrial function. […] IC50 values are expressed in nM. In all assays the intrinsic antiproliferative or cytotoxic activity of the MDR inhibitors was also determined for HL60/ADR cells.

[2] = tested on: L1210VMDRC.06; test: MDR sensitization assay: doxorubicin antiproliferative activity with or without MDR inhibitor (MTT/XTT viability); type: cell-based, mouse; conditions: IC50 Dox / IC50 Dox + Inhibitor
Experimental: To assay the ability of the compounds according to this invention to increase the antiproliferative activity of a drug, cell lines which are known to be resistant to a particular drug may be used. These cell lines include, but are not limited to, the L1210, P388D, CHO and MCF7 cell lines. Alternatively, resistant cell lines may be developed. The cell line is exposed to the drug to which it is resistant, or to the test compound; cell viability is then measured and compared to the viability of cells which are exposed to the drug in the presence of the test compound. […]
Multi-drug resistance assays were conducted by plating cells (2 x 10^3, 1 x 10^4, or 5 x 10^4 cells/well) in 96 well microtiter plates and exposing them to a concentration range of doxorubicin ([…]) as described in Ford et al., Cancer Res., Vol. 50, 1748-1756. […] After culture for 3 days, the viability of cells was quantitated using MTT (Mossman) or XTT dyes to assess mitochondrial function. […]
Results were determined by comparison of the IC50 for doxorubicin alone to the IC50 for doxorubicin+ MDR inhibitor. An MDR ratio was calculated (IC50 Dox/ IC50 Dox + Inhibitor) and the integer value used for comparison of compound potencies.

Row | Compound | IC50 [1] | MDR Ratio 0.5 µM ([2]; 0.5 µM compound) | MDR Ratio 1.0 µM ([2]; 1.0 µM compound)
1 | COc1cccc2c1C(=O)c1c(O)c3c(c(O)c1C2=O)C[C@@](O)(C(=O)CO)C[C@@H]3O[C@H]1C[C@H](N)[C@H](O)[C@H](C)O1 [Dox, doxorubicin] | 5 µM | – | –
2 | (S)-N-Benzyl-2-(methyl-(2-oxo-2-(3,4,5-trimethoxyphenyl)acetyl)amino)-3-phenyl-N-(3-(pyridin-4-yl)-1-(2-(pyridin-4-yl)-propyl)butyl)propionamide [Compound 12] | – | 3.2 | >9.2
